This passage reports % of control and % of inhibition results from ChEMBL document CHEMBL5465560, “Selectivity Literature for EUbOPEN Chemogenomic Library” (2024).

Assay [1] addresses T1, Peripheral plasma membrane protein CASK (Homo sapiens) (UniProt O14936).
T1 sequence (whole entry): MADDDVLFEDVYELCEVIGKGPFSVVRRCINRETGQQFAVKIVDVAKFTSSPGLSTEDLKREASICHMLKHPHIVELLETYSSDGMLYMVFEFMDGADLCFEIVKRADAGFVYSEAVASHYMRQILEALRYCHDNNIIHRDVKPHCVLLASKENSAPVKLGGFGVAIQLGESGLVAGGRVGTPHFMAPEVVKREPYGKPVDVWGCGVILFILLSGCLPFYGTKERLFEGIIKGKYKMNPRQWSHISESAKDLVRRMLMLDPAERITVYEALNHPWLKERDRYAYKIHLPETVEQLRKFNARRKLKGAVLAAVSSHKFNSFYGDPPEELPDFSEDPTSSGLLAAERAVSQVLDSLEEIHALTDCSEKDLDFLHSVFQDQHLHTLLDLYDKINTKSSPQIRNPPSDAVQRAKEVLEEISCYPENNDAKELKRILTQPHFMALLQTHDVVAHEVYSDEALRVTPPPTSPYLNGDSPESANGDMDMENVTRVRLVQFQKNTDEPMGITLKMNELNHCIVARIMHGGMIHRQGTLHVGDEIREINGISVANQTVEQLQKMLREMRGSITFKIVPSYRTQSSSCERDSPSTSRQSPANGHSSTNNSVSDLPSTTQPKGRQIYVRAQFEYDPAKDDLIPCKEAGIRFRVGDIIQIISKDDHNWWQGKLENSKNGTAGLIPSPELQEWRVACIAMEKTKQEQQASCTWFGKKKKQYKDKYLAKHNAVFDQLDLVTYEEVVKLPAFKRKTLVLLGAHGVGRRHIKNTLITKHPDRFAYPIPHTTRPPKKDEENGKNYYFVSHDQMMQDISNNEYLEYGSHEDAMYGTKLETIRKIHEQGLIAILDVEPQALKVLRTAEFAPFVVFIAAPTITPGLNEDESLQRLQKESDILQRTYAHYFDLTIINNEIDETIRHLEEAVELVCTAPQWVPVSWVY
The following applies: at 10 µM.

Assay [2] concerns T2, Receptor-type tyrosine-protein kinase FLT3 (Homo sapiens), P36888 [D835Y].
T2 sequence (whole entry): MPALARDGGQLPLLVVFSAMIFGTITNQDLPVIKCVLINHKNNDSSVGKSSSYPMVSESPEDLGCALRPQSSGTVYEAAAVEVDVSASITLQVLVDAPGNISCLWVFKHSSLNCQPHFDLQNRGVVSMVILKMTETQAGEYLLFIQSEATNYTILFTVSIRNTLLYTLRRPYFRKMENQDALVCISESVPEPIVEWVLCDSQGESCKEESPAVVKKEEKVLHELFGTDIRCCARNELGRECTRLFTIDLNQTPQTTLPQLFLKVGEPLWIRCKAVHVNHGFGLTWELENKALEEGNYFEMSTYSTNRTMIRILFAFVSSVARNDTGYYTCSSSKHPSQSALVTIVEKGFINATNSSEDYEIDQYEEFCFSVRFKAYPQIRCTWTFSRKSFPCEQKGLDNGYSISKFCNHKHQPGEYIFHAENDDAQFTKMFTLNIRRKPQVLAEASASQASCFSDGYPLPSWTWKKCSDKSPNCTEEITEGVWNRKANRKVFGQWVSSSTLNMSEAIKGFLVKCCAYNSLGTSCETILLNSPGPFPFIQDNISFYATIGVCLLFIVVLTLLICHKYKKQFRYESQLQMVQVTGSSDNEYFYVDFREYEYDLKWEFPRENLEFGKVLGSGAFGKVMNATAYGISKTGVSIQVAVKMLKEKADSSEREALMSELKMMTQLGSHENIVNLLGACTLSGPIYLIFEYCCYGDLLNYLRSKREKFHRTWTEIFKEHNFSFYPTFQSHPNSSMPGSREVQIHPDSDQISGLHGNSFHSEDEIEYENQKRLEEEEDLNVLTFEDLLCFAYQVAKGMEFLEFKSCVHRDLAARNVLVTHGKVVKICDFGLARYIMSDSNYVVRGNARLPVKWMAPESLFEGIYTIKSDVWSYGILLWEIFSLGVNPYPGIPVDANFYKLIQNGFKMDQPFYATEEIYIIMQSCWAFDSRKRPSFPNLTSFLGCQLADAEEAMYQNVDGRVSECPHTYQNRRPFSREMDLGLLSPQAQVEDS
The following applies: at 10 µM.

Assay [3] addresses Ribosomal protein S6 kinase alpha-2 (Homo sapiens) (UniProt Q15349). Nature of the assay: Selectivity interaction (KinomeScan (DiscoverX)) EUB0000092b RPS6KA2. The note with it: at 10 µM.
For assay [4], the target named is Rho-associated protein kinase 2 (Homo sapiens, UniProt O75116). Put plainly: Selectivity interaction (KinomeScan (DiscoverX)) EUB0000045b ROCK2.
Rho-associated protein kinase 2, sequence (O75116 whole entry, looked up, the tested form may be a part): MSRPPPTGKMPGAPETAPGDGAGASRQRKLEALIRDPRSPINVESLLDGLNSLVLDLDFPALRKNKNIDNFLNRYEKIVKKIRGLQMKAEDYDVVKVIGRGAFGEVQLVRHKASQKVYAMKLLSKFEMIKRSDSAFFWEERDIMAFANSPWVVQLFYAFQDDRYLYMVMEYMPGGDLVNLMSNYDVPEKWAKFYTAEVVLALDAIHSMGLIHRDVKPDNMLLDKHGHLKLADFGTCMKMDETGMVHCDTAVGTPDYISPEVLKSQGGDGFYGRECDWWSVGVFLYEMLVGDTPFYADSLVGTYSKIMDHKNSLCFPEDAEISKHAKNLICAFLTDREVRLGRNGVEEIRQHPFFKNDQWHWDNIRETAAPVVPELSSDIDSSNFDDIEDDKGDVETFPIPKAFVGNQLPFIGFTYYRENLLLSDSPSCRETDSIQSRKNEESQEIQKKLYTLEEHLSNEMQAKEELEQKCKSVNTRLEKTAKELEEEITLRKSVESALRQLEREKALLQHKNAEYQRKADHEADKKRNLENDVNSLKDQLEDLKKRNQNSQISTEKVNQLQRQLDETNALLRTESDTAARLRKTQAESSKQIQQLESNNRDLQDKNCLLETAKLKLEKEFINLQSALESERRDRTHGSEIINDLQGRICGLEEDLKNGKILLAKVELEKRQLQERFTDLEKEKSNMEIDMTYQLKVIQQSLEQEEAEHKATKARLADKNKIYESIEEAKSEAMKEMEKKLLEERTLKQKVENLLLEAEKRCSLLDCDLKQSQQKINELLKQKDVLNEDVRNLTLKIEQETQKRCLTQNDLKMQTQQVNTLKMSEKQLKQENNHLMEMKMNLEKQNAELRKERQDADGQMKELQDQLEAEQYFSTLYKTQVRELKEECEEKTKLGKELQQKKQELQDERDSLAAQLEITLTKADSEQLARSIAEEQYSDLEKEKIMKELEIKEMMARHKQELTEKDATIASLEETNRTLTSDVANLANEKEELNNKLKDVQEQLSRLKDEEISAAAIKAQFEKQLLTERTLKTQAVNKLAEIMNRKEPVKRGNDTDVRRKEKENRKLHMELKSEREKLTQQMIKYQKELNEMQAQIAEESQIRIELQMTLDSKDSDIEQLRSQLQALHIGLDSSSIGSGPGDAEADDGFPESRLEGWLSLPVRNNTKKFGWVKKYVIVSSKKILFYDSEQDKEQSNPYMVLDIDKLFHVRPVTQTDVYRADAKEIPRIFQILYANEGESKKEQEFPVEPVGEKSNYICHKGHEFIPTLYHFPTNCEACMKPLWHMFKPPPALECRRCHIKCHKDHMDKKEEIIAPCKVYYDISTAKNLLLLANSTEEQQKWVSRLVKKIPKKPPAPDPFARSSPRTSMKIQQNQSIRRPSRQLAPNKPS
Assay [5] deals with T3, Discoidin domain-containing receptor 2 (Homo sapiens) (UniProt Q16832).
T3 sequence (whole entry): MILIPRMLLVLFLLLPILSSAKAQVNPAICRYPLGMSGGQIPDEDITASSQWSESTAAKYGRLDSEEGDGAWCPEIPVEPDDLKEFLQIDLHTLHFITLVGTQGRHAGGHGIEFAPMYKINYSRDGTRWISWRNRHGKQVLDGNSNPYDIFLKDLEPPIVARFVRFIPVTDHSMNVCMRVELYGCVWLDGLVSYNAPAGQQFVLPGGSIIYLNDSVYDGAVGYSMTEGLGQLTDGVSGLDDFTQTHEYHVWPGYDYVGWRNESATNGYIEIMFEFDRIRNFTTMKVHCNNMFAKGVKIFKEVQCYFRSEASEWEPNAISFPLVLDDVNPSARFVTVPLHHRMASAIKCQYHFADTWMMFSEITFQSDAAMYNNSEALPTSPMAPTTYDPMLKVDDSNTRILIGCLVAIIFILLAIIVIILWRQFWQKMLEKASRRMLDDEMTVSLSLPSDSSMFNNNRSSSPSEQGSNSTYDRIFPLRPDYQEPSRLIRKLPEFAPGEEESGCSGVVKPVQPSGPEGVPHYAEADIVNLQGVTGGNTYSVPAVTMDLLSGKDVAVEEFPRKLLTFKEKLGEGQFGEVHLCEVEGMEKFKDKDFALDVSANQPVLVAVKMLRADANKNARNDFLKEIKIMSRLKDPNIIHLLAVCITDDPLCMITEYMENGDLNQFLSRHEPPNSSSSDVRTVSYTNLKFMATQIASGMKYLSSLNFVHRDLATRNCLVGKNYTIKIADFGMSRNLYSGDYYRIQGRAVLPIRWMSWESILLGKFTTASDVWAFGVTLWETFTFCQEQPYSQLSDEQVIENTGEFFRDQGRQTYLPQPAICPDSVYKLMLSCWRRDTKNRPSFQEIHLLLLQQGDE
Put plainly: Selectivity interaction (Kinase panel (Invitrogen)) EUB0000639a DDR2. The following applies: at 200 nM.

Assay [6] concerns the target Serine/threonine-protein kinase PLK1 (Homo sapiens, UniProt P53350). Nature of the assay: Selectivity interaction (KinomeScan (DiscoverX)) EUB0000618a PLK1. The note with it: at 10 µM.

Serine/threonine-protein kinase PLK1, sequence (P53350 whole entry): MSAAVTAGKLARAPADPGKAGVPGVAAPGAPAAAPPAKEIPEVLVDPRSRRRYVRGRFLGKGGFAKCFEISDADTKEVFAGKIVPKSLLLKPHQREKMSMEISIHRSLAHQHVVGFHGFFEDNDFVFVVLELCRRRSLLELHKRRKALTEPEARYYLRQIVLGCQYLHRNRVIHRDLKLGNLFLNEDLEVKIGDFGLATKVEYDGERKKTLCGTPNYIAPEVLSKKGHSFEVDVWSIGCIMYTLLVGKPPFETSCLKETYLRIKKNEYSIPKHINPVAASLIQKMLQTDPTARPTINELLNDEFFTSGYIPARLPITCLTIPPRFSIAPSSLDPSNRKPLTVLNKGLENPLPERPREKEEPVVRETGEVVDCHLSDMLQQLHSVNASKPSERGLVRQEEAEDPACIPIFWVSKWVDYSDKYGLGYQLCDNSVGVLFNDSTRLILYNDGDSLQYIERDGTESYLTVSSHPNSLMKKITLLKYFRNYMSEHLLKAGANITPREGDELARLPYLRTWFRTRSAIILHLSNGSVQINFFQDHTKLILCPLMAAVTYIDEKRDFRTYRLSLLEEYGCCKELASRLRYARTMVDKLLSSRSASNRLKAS
Ribosomal protein S6 kinase alpha-2 (Homo sapiens), sequence (Q15349 whole entry): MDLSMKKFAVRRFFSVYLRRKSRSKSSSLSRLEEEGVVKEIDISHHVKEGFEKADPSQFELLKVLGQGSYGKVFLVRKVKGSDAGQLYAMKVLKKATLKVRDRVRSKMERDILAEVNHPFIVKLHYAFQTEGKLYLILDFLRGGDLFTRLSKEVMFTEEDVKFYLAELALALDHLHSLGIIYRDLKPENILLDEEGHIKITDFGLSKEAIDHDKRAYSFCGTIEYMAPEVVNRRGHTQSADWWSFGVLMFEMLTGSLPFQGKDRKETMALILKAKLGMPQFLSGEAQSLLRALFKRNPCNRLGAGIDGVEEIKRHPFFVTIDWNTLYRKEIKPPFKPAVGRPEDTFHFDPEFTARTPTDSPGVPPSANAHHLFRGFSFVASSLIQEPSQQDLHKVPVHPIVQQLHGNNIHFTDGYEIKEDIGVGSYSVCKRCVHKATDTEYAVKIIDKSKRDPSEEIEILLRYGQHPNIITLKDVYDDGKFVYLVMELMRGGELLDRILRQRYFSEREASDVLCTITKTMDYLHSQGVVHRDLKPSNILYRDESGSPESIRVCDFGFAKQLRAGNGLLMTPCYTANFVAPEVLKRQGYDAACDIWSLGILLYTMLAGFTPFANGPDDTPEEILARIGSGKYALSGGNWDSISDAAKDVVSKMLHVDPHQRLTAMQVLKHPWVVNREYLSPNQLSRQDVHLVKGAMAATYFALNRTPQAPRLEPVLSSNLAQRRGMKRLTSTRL

As to `Cc1cc([C@@H](C)Nc2ccccc2C(=O)O)c2nc(N3CCOCC3)cc(=O)n2c1` [AZD-6482], the % of control in assay [1] amounted to 92%; in assay [2] it was 54%.
For the molecule `CCC(=O)N1CCN(c2ccc(-n3c(=O)ccc4cnc5ccc(-c6cnc7ccccc7c6)cc5c43)cc2C(F)(F)F)CC1`, in assay [3], the % of control was found to be 85%.
As for `C=CC(=O)Nc1cc(-n2c(=O)ccc3cnc4ccc(-c5ccc(NS(C)(=O)=O)cc5)cc4c32)ccc1C`, the figures for the % of control in assay [4] (at 1 µM) and in assay [4] (at 10 µM) were 87% and 79%, respectively.
For `CC[C@@H]1[C@H](F)C(=O)N[C@@H]1COc1nccc2cc(C(N)=O)c(OC)cc12` [ZIMLOVISERTIB], the % of inhibition in assay [5] was -2.26%.
For the molecule `O[C@H]1CC[C@H](Nc2ncc3nc(Nc4c(F)cc(F)cc4F)n([C@H]4CCOC4)c3n2)CC1`, the % of control in assay [6] worked out at 100%.
